Positions of bridges follow the written chain, without caps; N, C: chain ends. Residues, ends and D or L forms follow the SMILES beside them.

Broadly, the EC50 is the concentration at which the effect is half-maximal. A low value points to a more potent agent.

In the experiment the target is T1, NPR-A signaling in HeLa cells (Homo sapiens, UniProt P16066).
T1 construct: Cyclic GMP (cGMP) elevation in HeLa cells in response to Natriuretic Peptide stimulation; endogenous in cells; host or cells: HeLa cells
T1 sequence (P16066 33-1061): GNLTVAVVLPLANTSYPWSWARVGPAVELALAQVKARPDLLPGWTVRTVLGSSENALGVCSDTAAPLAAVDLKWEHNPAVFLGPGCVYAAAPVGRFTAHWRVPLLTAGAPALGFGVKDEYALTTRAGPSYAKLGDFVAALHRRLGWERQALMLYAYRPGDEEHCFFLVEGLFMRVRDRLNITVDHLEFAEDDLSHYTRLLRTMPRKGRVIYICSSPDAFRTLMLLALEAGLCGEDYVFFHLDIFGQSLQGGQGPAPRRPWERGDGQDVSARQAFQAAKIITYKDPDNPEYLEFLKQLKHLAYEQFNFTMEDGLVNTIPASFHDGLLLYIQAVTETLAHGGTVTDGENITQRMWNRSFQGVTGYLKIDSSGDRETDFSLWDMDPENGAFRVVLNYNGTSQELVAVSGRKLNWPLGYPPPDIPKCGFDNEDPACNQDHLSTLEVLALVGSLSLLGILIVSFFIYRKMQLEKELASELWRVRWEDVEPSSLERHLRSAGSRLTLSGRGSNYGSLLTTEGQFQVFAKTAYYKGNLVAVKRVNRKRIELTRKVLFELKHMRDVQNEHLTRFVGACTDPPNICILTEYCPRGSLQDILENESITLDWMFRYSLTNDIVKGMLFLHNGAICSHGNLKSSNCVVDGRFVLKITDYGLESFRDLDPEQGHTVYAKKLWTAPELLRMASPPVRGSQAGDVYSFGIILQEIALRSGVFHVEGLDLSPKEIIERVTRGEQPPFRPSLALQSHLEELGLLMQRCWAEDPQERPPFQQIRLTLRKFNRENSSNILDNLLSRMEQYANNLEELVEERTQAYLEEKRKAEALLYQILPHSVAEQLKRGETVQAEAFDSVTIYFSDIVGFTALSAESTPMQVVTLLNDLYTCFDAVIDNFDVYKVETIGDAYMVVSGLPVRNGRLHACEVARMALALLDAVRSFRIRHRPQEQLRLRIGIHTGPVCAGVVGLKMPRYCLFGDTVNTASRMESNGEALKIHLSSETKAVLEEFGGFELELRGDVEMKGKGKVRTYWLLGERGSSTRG
The experiment in a line: cGMP AlphaScreen assay in HeLa cells (Examples 14, 15). Format: cell-based. As to conditions: 30 minutes at 37° C. The procedure: HeLa cells were maintained in RPMI cell culture medium (Gihco Invitrogen, Mt Waverley, Australia) supplemented with 10% Foetal Bovine Serum (Cambrex Bio Science, Rockland, USA). Upon reaching confluence, cells were sub-cultured such that they would be 70-90% confluent at time of assay.
Cyclic GMP (cGMP) elevation in HeLa cells in response to Natriuretic Peptide stimulation was performed using a cGMP AlphaScreen kit (PerkinElmer, Boston, USA), as follows for normal experiments: Cells were detached, pelleted to remove growth medium, and resuspended in Stimulation Buffer (Hank's Balanced Salt Solution, 0.1% Bovine Serum Albumin [BSA] (Sigma-Aldrich, Castle Hill, Australia), 1 mM 3-Isobutyl-1-methylxanthine [IBMX] (Sigma-Aldrich, Castle Hill, Australia)) and diluted to 6×10^6 cells per mL (30 000 cells per 5 μL). 5 μL of cells were added to wells of white 384-well OptiPlates (PerkinElmer, Boston, USA), and stimulated with increasing concentrations of peptide for 30 minutes at 37° C. Cells were then lysed with 10 μL Lysis buffer (dH2O, 0.3% Tween-20 (Sigma-Aldrich, Castle Hill, Australia), 5 mM HEPES (JRH Biosciences, Kansas, USA) and 0.1% BSA) and 5 μL acceptor bead mix (10 μL per mL acceptor beads and 1/3000 anti-cGMP antibody (BioVision, Mountain View, USA) in lysis buffer) added per well in the dark. Plates were incubated in the dark at room temperature for 30 minutes, then 5 μL donor bead mix (10 μL per ML donor beads and 0.3 nM biotinylated cGMP in lysis buffer) was added per well in the dark and the plate incubated overnight at room temperature. Signal was read using an EnVision plate reader (PerkinElmer, Boston, USA) and data analysed using Prism software. The cGMP standard curve was performed as per manufacturer's instructions.
To examine whether TNPc and synthetic analogs produced in the inventors' laboratory could stimulate NPR-A signaling, cGMP elevations in HeLa cells in response to these peptides were measured, as described above.
Background: Bead proximity is the source of the signal in Alpha formats.

Setting [1] is: −Log10EC50 (pEC50) ± Standard Error, cGMP accumulation in HeLa cells.

In the case of `CC[C@H](C)[C@@H]1NC(=O)[C@H](CCCCN)NC(=O)[C@H](Cc2c[nH]cn2)NC(=O)CNC(=O)[C@H](Cc2ccccc2)NC(=O)[C@@H](NC(=O)[C@@H]2CCCN2C(=O)[C@H](CC(=O)O)NC(=O)[C@H](Cc2ccc(O)cc2)NC(=O)[C@H](CCCCN)NC(=O)[C@@H](NC(=O)[C@@H](N)CCC(=O)O)C(C)C)CSSC[C@@H](C(=O)N2CCC[C@H]2C(=O)N[C@@H](CO)C(=O)N[C@@H](CC(C)C)C(=O)N[C@@H](CCCNC(=N)N)C(=O)N[C@@H](CC(=O)O)C(=O)N2CCC[C@H]2C(=O)N[C@@H](CCCNC(=N)N)C(=O)N2CCC[C@H]2C(=O)N[C@@H](CC(N)=O)C(=O)N[C@@H](C)C(=O)N2CCC[C@H]2C(=O)N[C@@H](CO)C(=O)N[C@H](C(=O)N[C@@H](CO)C(=O)N[C@@H](C)C(=O)O)[C@@H](C)O)NC(=O)CNC(=O)[C@H](CC(C)C)NC(=O)[C@H](CC(N)=O)NC(=O)[C@H](CO)NC(=O)[C@H](C(C)C)NC(=O)[C@H](Cc2c[nH]cn2)NC(=O)[C@H](CC(N)=O)NC(=O)[C@H]([C@@H](C)CC)NC(=O)[C@H](CCCNC(=N)N)NC(=O)[C@H](CC(=O)O)NC1=O` [DNP, reference compound] (H-EVKYDPCFGHKIDRINHVSNLGCPSLRDPRPNAPSTSA-OH; disulfide 7-23; N-terminus and C-terminus assumed), the 50% effective concentration (EC50) is 0.392 nM (EC50, cGMP accumulation in HeLa cells) and 0.382 nM under setting [1].
The compound `CC[C@H](C)[C@H](NC(=O)[C@H](CCCCN)NC(=O)[C@H](CO)NC(=O)[C@H](CC(=O)O)NC(=O)[C@@H](N)CO)C(=O)NCC(=O)N[C@@H](CC(N)=O)C(=O)NCC(=O)N[C@H]1CSSC[C@@H](C(=O)N[C@@H](CC(N)=O)C(=O)N[C@@H](CCCNC(=N)N)C(=O)N[C@H](C(=O)N[C@@H](CCSC)C(=O)N[C@@H](CCC(N)=O)C(=O)N[C@@H](CC(N)=O)C(=O)N2CCC[C@H]2C(=O)N2CCC[C@H]2C(=O)N[C@@H](CCCCN)C(=O)N[C@@H](CCCCN)C(=O)N[C@@H](Cc2ccccc2)C(=O)N[C@@H](CO)C(=O)NCC(=O)N[C@@H](CCC(=O)O)C(=O)O)[C@@H](C)CC)NC(=O)CNC(=O)[C@H](CC(C)C)NC(=O)CNC(=O)[C@H](CO)NC(=O)[C@H](C(C)C)NC(=O)[C@H](CO)NC(=O)CNC(=O)[C@H]([C@@H](C)CC)NC(=O)[C@H](CCCNC(=N)N)NC(=O)[C@H](CC(=O)O)NC(=O)[C@H](CC(C)C)NC(=O)[C@@H]2CCCN2C(=O)[C@H](Cc2ccccc2)NC(=O)CNC(=O)[C@H](Cc2ccccc2)NC1=O` [TNPc] (H-SDSKIGNGCFGFPLDRIGSVSGLGCNRIMQNPPKKFSGE-OH; disulfide 9-25) had a 50% effective concentration (EC50) under setting [1] of 124000 nM.

The record behind these values is patent publication US8058242B2, “Chimeric proteins with natriuretic activity” (The University of Queensland, priority 2004, dated 2011).
